Measured values taken from patent US11396517B1, “Exo-aza spiro inhibitors of menin-MLL interaction” (Janssen Pharmaceutica NV, priority 2017, dated 2022).
Read-outs that look alike come from different tables or passages of the source.

Key:
MOLM14 [1] = assay: Proliferation assay A (spheroid assay) MOLM14; type: cell-based, human; settings: MOLM14 cells, 8 d, AUC of confluence against time, absolute IC50, read-out: (3a) Spheroid assay MOLM14 (IC50(μM)) Assay A
Method: 3a) Proliferation Assay A
The anti-proliferative effect of menin/MLL protein/protein interaction inhibitor test compounds was assessed in human leukemia cell lines. The cell lines MV-4-11 and MOLM14 harbor MILL translocations and express the MILL fusion proteins MLL-AF4 and MLL-AF9, respectively, as well as the wildtype protein from the second allele. […] K562 was used as a control cell line containing two MLL wildtype alleles in order to exclude compounds that display general cytotoxic effects.
MV-4-11 and MOLM14 were cultured in RPMI-1640 (Sigma Aldrich) supplemented with 10% fetal bovine serum (HyClone), 2 mM L-glutamine (Sigma Aldrich) and 50 μg/ml gentamycin (Gibco). K562 were propagated in RPMI-1640 (Sigma Aldrich) supplemented with 20% fetal bovine serum (HyClone), 2 mM L-glutamine (Sigma Aldrich) and 50 μg/ml gentamycin (Gibco).
In order to assess the anti-proliferative effects, 1,500 MV-4-11, 300 MOLM14 or 750 K562 cells were seeded in 200 μl media per well in 96-well round bottom, ultra-low attachment plates (Costar, catalogue number 7007). Cell seeding numbers were chosen based on growth curves to ensure linear growth throughout the experiment. Test compounds were added at different concentrations and the DMSO content was normalized to 0.3%. Cells were incubated for 8 d at 37° C. and 5% CO2. Spheroid like growth was monitored in real-time by live-cell imaging (IncuCyteZOOM, Essenbio, 4× objective) acquiring one image every four hours for 8 d. Confluence (%) as a measure of spheroid size was determined using an integrated analysis tool.
In order to determine the cumulative effect of the test compounds over time, the area under the curve (AUC) in a plot of confluence against time was calculated. Confluence at the beginning of the experiment (t=0) was used as baseline for the AUC calculation.
Absolute IC50 values were calculated according to the following procedure: % Control=(AUC sample/AUC control)*100
AUC control mean AUC of control values (cells without compound/DMSO as vehicle control)
A non-linear curve fit was applied using the least squares (ordinary) fit method to the plot of % control versus compound concentration. Based on this, the absolute IC50 value (half maximal inhibitory concentration of the test compound causing an anti-proliferative effect of 50% relative to the vehicle control) was calculated.

menin = biological target: T1, menin (Homo sapiens, UniProt O00255, T541A); assay: Menin/MLL homogenous time-resolved fluorescence (HTRF) assay; type: binding
T1 construct: Menin (a.a. 1-610-6×his tag)
T1 sequence (O00255 with tags, fused parts or gaps T541A): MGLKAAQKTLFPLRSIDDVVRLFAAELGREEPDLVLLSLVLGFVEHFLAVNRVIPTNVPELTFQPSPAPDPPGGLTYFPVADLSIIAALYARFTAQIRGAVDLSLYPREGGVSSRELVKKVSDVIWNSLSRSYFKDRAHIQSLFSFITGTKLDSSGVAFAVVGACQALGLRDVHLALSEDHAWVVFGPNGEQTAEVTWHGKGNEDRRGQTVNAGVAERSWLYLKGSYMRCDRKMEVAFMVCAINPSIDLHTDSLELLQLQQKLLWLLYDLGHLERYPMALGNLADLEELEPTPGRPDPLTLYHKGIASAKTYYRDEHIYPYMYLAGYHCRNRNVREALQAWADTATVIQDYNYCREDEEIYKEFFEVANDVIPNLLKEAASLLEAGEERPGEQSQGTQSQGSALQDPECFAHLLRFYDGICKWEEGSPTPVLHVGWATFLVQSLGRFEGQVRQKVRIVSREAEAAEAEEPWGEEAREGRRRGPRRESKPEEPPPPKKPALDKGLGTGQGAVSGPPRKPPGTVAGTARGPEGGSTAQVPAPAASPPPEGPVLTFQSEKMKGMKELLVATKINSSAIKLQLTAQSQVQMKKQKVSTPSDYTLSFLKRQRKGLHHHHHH
Summary of the method: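 Displacement of 75 nM FITC-MBM1 from terbium-cryptate-labeled His-tagged menin 1-610 ([…]) was read as the 520/490 nm HTRF ratio. Compound (11-point, 3-fold series) got 5 min with menin before peptide, then 15 min at ambient; 0.5% DMSO, Tris pH 7.5.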

MV-4-11 = assay: Proliferation assay A (spheroid assay) MV-4-11; type: cell-based, human; settings: MV-4-11 cells, 8 d, AUC of confluence against time, absolute IC50, read-out: (3a) Spheroid assay MV-4-11 (IC50(μM)) Assay A
Summary of the method: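 Spheroid growth in ultra-low-attachment round-bottom wells (1,500 MV-4-11, 300 MOLM14 or 750 K562 cells), compound titration at 0.3% DMSO, 8 d at 37° C. Confluence imaged every 4 h; AUC from t=0 baseline expressed as % of DMSO control and fitted for absolute IC50.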

MOLM14 [2] = assay: Proliferation assay B (spheroid assay) MOLM14; type: cell-based, human; settings: Homo sapiens, MOLM-14, 192 h, MOLM14 cells, confluence at day 8, absolute IC50; read-out: (3b) Spheroid assay MOLM14 (IC50(μM)) Assay B
Summary of the method: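 IC50 derived from % effect on day-8 imaged confluence, scaled between DMSO-treated cells (high) and 1 μM staurosporine (low), using a variable-slope fit constrained 0-100%. Cells seeded as spheroids in ultra-low-attachment plates and exposed to compound for 8 days, 0.3% DMSO.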

[3] = location 1, read-out: (2) location 1 Menin HTRF assay (IC50 (nM))
[4] = location 2, read-out: (2) location 2 Menin HTRF assay (IC50 (nM))

Row | SMILES | IC50 (MOLM14 [1]; Homo sapiens, MOLM-14, 192 h) [µM] | IC50 (menin; [3]) [nM] | IC50 (menin; [4]) [nM] | IC50 (MV-4-11; Homo sapiens, MV4-11, 192 h) [µM] | IC50 (MOLM14 [1]) [µM] | IC50 (MV-4-11) [µM] | IC50 (MOLM14 [2]) [µM]
1 | FC(F)(F)Cc1cc2c(N3CC[C@@]4(CC[C@@H](NCc5ccccc5)C4)C3)ncnc2s1 (single isomer, unassigned) [Compound 3] | 2.39 | 75.7 | 10 | 0.75 | – | – | –
2 | O=c1[nH]c2cc(CNC3CCC4(C3)CN(c3ncnc5sc(CC(F)(F)F)cc35)C4)ccc2o1 (single isomer, unassigned) [Compound 57] | – | – | 3.6 | – | 0.44 | 0.09 | –
3 | CNC(=O)c1ccc(NC2CCC3(C2)CN(c2ncnc4sc(CC(F)(F)F)cc24)C3)cc1 (single isomer, unassigned) [Compound 98] | 1.3 | – | 2.6 | 0.25 | – | – | 1.36
4 | O=c1[nH]c2ccc(CNC3CCC4(C3)CN(c3ncnc5sc(CC(F)(F)F)cc35)C4)cc2[nH]1 (single isomer, unassigned) [Compound 108] | > 3.75 | – | 5.2 | – | – | 0.53 | –
5 | FC(F)(F)Cc1cc2c(N3CCC4(CC(Nc5ccccc5)C4)C3)ncnc2s1 (single isomer, unassigned) [Compound 149] | > 3.75 | – | 37.5 | 3.67 | – | – | –
6 | CC(C)(N[C@H]1CCC2(C1)CN(c1ncnc3sc(CC(F)(F)F)cc13)C2)c1ccccc1 (single isomer, unassigned) [Compound 281] | 1.78 | – | 62.7 | 1.11 | – | – | –
7 | Nc1nc(N2CCC3(CC(Nc4ccc5[nH]c(=O)oc5c4)C3)C2)c2cc(CC(F)(F)F)sc2n1 (single isomer, unassigned) [Compound 386] | 1.99 | – | 86.8 | > 3.75 | – | – | –
8 | FC(F)(F)Cc1cc2c(N3CCC4(CCC(NCc5ccccc5)CC4)C3)ncnc2s1 (stereo not shown) [Compound 1] | 0.79 | 3.7 | 5 | 0.17 | – | – | –
9 | O=c1[nH]c2ccc(CNC3CCC4(C3)CN(c3ncnc5sc(CC(F)(F)F)cc35)C4)cc2[nH]1 (stereo not shown) [Compound 14] | 2.3 | 5.9 | 0.8 | 0.39 | – | – | –
10 | O=c1[nH]c2ccc(CNC3CCC4(C3)CN(c3ncnc5sc(CC(F)(F)F)cc35)C4)cc2o1 (stereo not shown) [Compound 15] | 1.29 | – | 2.2 | 0.25 | – | – | –
11 | FC(F)(F)Cc1cc2c(N3CC4(CCC(NCc5cccc(-c6cc[nH]n6)c5)C4)C3)ncnc2s1 (stereo not shown) [Compound 17] | 3.51 | – | 7.2 | 1.36 | – | – | –
12 | CC(C)N(C)CC1CC2(CCN(c3ncnc4sc(CC(F)(F)F)cc34)C2)C1 (stereo not shown) [Compound 40] | 2.64 | – | 90.9 | 3.13 | – | – | –
13 | CC(NC1CCC2(C1)CN(c1ncnc3sc(CC(F)(F)F)cc13)C2)c1ccccc1 (stereo not shown) [Compound 42] | 0.69 | – | 43.8 | 1.24 | – | – | –
14 | N#CCc1ccc(NC2CC3(CCN(c4ncnc5sc(CC(F)(F)F)cc45)C3)C2)cc1 (stereo not shown) [Compound 44] | 2.61 | – | 11.3 | 2.08 | – | – | –
15 | CC(C)NC1CC2(CCN(c3ncnc4sc(CC(F)(F)F)cc34)C2)C1 (stereo not shown) [Compound 51] | 2.46 | 61.3 | – | 0.81 | – | – | –
16 | CNc1nc(N2CCC3(CC(NCc4ccccc4)C3)C2)c2cc(CC(F)(F)F)sc2n1 (stereo not shown) [Compound 61] | 0.29 | – | 2.4 | 0.1 | – | – | –
17 | N#CCc1ccc(NC2CC3(CCN(c4ncnc5sc(CC(F)(F)F)cc45)C3)C2)c(F)c1 (stereo not shown) [Compound 63] | 1.13 | – | 44.3 | 1.01 | – | – | –
18 | Cc1nc(N2CC3(CCC(NCc4ccc5[nH]c(=O)[nH]c5c4)C3)C2)c2cc(CC(F)(F)F)sc2n1 (stereo not shown) [Compound 119] | 2.28 | – | 47.9 | 2.15 | – | – | –
19 | O=c1[nH]c2cc(NC3CCC4(C3)CN(c3ncnc5sc(CC(F)(F)F)cc35)C4)ccc2o1 (stereo not shown) [Compound 285] | > 3.75 | – | 16.2 | 2.65 | – | – | –
20 | FC(F)(F)Cc1cc2c(N3CC4(CCC(Nc5ccc6cc(C(F)(F)F)[nH]c6c5)C4)C3)ncnc2s1 (stereo not shown) [Compound 288] | > 3.75 | – | 135 | > 3.75 | – | – | –
21 | FC(F)(F)Cc1cc2c(N3CC4(CC(NCc5ccccc5)C4)C3)ncnc2s1 [Compound 428] | 1.84 | 23.8 | – | 0.55 | – | – | –

The next lines start with the values.

Row | IC50 (MOLM14 [1]; Homo sapiens, MOLM-14, 192 h) [µM] | IC50 (menin; [3]) [nM] | IC50 (menin; [4]) [nM] | IC50 (MV-4-11; Homo sapiens, MV4-11, 192 h) [µM] | IC50 (MOLM14 [1]) [µM] | IC50 (MV-4-11) [µM] | IC50 (MOLM14 [2]) [µM] | SMILES
22 | 4.45 | – | 2050 | 5.11 | – | – | – | FC(F)(F)Cc1cc2c(N3CCC4(CCC(Nc5ccccc5)C4)C3)ncnc2s1 (single isomer, unassigned) [Compound 33]
23 | 1.27 | – | 7 | 0.28 | – | – | – | O=c1[nH]c2ccc(CNC3CCC4(C3)CN(c3ncnc5sc(CC(F)(F)F)cc35)C4)cc2o1 (single isomer, unassigned) [Compound 55]
24 | 3.46 | – | 23.2 | 3.2 | – | – | – | COc1nc(N2CCC3(CC(NCc4ccccc4)C3)C2)c2cc(CC(F)(F)F)sc2n1 (single isomer, unassigned) [Compound 60]
25 | 3.05 | – | 8.4 | 0.9 | – | – | – | N#CC1(c2ccc(NC3CC4(CCN(c5ncnc6sc(CC(F)(F)F)cc56)C4)C3)cc2)CC1 (single isomer, unassigned) [Compound 172]
26 | 3.82 | – | 78.2 | – | – | 2.25 | – | N#CCc1ccc(NC2CC3(CCN(c4ncnc5sc(CC(F)(F)F)cc45)C3)C2)cc1 (single isomer, unassigned) [Compound 306]
27 | 0.19 | – | 2 | 0.03 | – | – | – | O=c1[nH]c2cc(CNC3CCC4(C3)CN(c3ncnc5sc(CC(F)(F)F)cc35)C4)ccc2o1 (stereo not shown) [Compound 16]
28 | 0.85 | – | 4.5 | 0.28 | – | – | – | COc1nc(N2CCC3(CC(NCc4ccccc4)C3)C2)c2cc(CC(F)(F)F)sc2n1 (stereo not shown) [Compound 59]
29 | 2.9 | – | 52.4 | 2.13 | – | – | – | CNc1nc(N2CC3(CCC(NCc4ccc5[nH]c(=O)[nH]c5c4)C3)C2)c2cc(CC(F)(F)F)sc2n1 (stereo not shown) [Compound 120]
30 | 1.68 | – | 32.2 | 1.94 | – | – | – | N#CCc1ccc(NC2CCC3(CCN(c4ncnc5sc(CC(F)(F)F)cc45)C3)C2)cc1 (stereo not shown) [Compound 143]
